Read-outs that look alike come from different tables or passages of the source.
Tests used:
[1] = Pharmacological (behavioral) signs after percutaneous diazepam in animal models, e.g. rhesus monkey; format: in vivo; settings: percutaneous administration, blood level of approximately 100 ng/ml
[2] = From the text: Rat full thickness skins were used in the following two types of diffusion cell methods.
The skin was excised from the shaved abdominal site of deceased male albino rats weighing 250~300 g, and washed with normal saline solution after the subcutaneous fat was carefully removed with scissors.
Probl. Dermatol., Vol. 7, p. […] The rat skin was mounted horizontally in a diffusion cell apparatus; the exposed area of the skin approximated 0.7 cm^2.
The active agent/PEAC solution of known concentration was added to the upper compartment of the cell, which was exposed to the epithelial side of the skin and a normal saline solution was placed in the lower compartment.
The penetration rate was studied in a thermostated bath at 30° C.
(§1) In all instances the in vitro diffusion cell technique or the in vivo rhesus monkey test earlier described were used. In all instances analysis was by conventional HPLC (high pressure liquid chromatography). Details and citations are given for illustrative techniques.
Detection was in a conventional manner via HPLC using a mobile phase of 70% A (0.5 acetic acid (v/v) with 1.0 g/l sodium pentane sulfonate) and 30% B (90% acetonitrile and 10% H2 O (v/v) with 1.0 g/l sodium pentane sulfonate); the columnn was ASI C18 300×3.9 mm and the flow rate was 2 ml/min by UV at 267 nm.

Remark: listed apart in the source
in vivo = settings: rhesus monkey, topical or ocular, In Vivo - Monkey Plasma, 200 mg on 49 cm^2, 25% ethyl laurate in N-methyl pyrrolidone
Description: Male rhesus monkeys weighing 10-14 Kg each were used as the subject. An appropriate area of the monkey's chest was shaved 24 hours before drug application.
Drug formulations comprising the PEAC were applied to a certain area of the chest as indicated in each example. The monkey was restrained in a chair to prevent it from touching its chest.
Blood samples were taken at appropriate intervals after the application. The heparinized blood was centrifuged, and the plasma was removed and stored at -20° C. until analyzed. […]
To this solution was added 120 mg of Klucel® (cross-linked hydroxypropylcellulose type HF, Hercules Inc.) and the same stirred thoroughly to obtain a uniform gel.
1.0 ml of the gel was applied to 49 cm^2 of the chest area of the monkey; the applied area was left open to the air for the duration of the experiment.
as §1
To this solution was added 120 mg of hydroxypropylcellulose (Klucel® HF). […]

[3] = 2 hrs, I: 25 mg drug + 25% isopropyl myristate in N-methyl pyrrolidone
[4] = 2 hrs, II: 25 mg drug + 25% isopropyl myristate in N-methyl piperidone
[5] = 2 hrs, III: 25 mg drug + 25% isopropyl myristate in N-methyl caprolactam
[6] = 2 hrs, IV: 25 mg drug + 25% ethyl laurate in N-methyl pyrrolidone
[7] = 4 hrs, I: 25 mg drug + 25% isopropyl myristate in N-methyl pyrrolidone
[8] = 4 hrs, II: 25 mg drug + 25% isopropyl myristate in N-methyl piperidone
[9] = 4 hrs, III: 25 mg drug + 25% isopropyl myristate in N-methyl caprolactam
[10] = 4 hrs, IV: 25 mg drug + 25% ethyl laurate in N-methyl pyrrolidone
[11] = 6 hrs, I: 25 mg drug + 25% isopropyl myristate in N-methyl pyrrolidone
[12] = 6 hrs, II: 25 mg drug + 25% isopropyl myristate in N-methyl piperidone
[13] = 6 hrs, III: 25 mg drug + 25% isopropyl myristate in N-methyl caprolactam
[14] = 6 hrs, IV: 25 mg drug + 25% ethyl laurate in N-methyl pyrrolidone
[15] = 8 hrs, I: 25 mg drug + 25% isopropyl myristate in N-methyl pyrrolidone
[16] = 8 hrs, II: 25 mg drug + 25% isopropyl myristate in N-methyl piperidone
[17] = 8 hrs, III: 25 mg drug + 25% isopropyl myristate in N-methyl caprolactam
[18] = 8 hrs, IV: 25 mg drug + 25% ethyl laurate in N-methyl pyrrolidone
[19] = Comparative Composition B: active agent 3 g in 97 g dimethyl propionamide
[20] = Comparative Composition C: active agent 3 g in 97 g acetone, acetone evaporated off
[21] = Composition A: active agent 3 g in 97 g of 25 volume % isopropyl myristate in dimethyl propionamide

SMILES | flux [2, 3] [μg/cm^2 /hr] | flux [2, 4] [μg/cm^2 /hr] | flux [2, 5] [μg/cm^2 /hr] | flux [2, 6] [μg/cm^2 /hr] | flux [2, 7] [μg/cm^2 /hr] | flux [2, 8] [μg/cm^2 /hr] | flux [2, 9] [μg/cm^2 /hr] | flux [2, 10] [μg/cm^2 /hr] | flux [2, 11] [μg/cm^2 /hr] | flux [2, 12] [μg/cm^2 /hr] | flux [2, 13] [μg/cm^2 /hr] | flux [2, 14] [μg/cm^2 /hr] | flux [2, 15] [μg/cm^2 /hr] | flux [2, 16] [μg/cm^2 /hr] | flux [2, 17] [μg/cm^2 /hr] | flux [2, 18] [μg/cm^2 /hr] | flux [19] [μg/cm^2 /24 hrs] | flux [20] [μg/cm^2 /24 hrs] | flux [21] [μg/cm^2 /24 hrs] | other results
CN1C(=O)CN=C(c2ccccc2)c2cc(Cl)ccc21 [Diazepam, 7-Chloro-1,3-dihydro-1-methyl-5-phenyl-2H-1,4-benzodiazepine-2-one] |  |  |  |  |  |  |  |  |  |  |  |  |  |  |  |  |  |  |  | pharmacological (behavioral) signs [1]: produces pharmacological (behavioral) signs of therapeutic effectiveness
CC(C)Cc1ccc(C(C)C(=O)O)cc1 (stereo not drawn) [Ibuprofen, p-isobutylhydratropic acid] | 154.0 | 142.0 | 33.3 | 192.8 | 95.6 | 79.2 | 90.7 | 93.0 | 53.9 | 46.1 | 76.4 | 47.5 | 49.6 | 40.4 | 63.2 | 40.0 | 835 | 242 | 1085 | 
COc1ccc2c(c1)c(CC(=O)O)c(C)n2C(=O)c1ccc(Cl)cc1 [Indomethacin, 1-(p-chlorobenzoyl)-5-methoxy-2-methylindole-3-acetic acid] | 65.1 | 55.7 | 11.3 | 89.5 | 39.0 | 49.3 | 56.8 | 63.7 | 21.5 | 29.3 | 41.3 | 23.0 | 13.2 | 15.1 | 21.8 | 13.9 | 150 | 30 | 394 | concentration at 1 h (in vivo; 1 hour): 370 ng/mL; concentration at 2 h (in vivo; 2 hours): 505 ng/mL; concentration at 3 h (in vivo; 3 hours): 420 ng/mL; concentration at 5 h (in vivo; 5 hours as printed): 110 ng/mL; concentration at 5 h (in vivo; 5 hours): 225 ng/mL
COC(=O)C1=C(C)NC(C)=C(C(=O)OC)C1c1ccccc1[N+](=O)[O-] [Nifedipine] |  |  |  |  |  |  |  |  |  |  |  |  |  |  |  |  |  |  |  | flux ([2]; 2 hrs, V (control): 25 mg drug in 1 ml N-methyl pyrrolidone): < 2 μg/cm^2 /hr; flux ([2]; 4 hrs, V (control): 25 mg drug in 1 ml N-methyl pyrrolidone): 2.7 μg/cm^2 /hr; flux ([2]; 6 hrs, V (control): 25 mg drug in 1 ml N-methyl pyrrolidone): 8.1 μg/cm^2 /hr; flux ([2]; 8 hrs, V (control): 25 mg drug in 1 ml N-methyl pyrrolidone): 3.9 μg/cm^2 /hr
O=C(O)c1ccccc1Nc1cccc(C(F)(F)F)c1 [flufenamic acid, N-(3'-trifluoro-methylphenyl)-anthranilic acid] |  |  |  |  |  |  |  |  |  |  |  |  |  |  |  |  | 311 | 26 | 598 | 
